# Experimental data from patent US9242987B2, “Heterocyclyl pyrazolopyrimidine analogues as JAK inhibitors” (Cellzome Limited, priority 2009, dated 2016).
# pIC50: −log10 of the molar value.
# Key:
# JAK2 = biological target: T1, JAK2 (Homo sapiens, UniProt O60674); assay: Kinobeads assay, JAK2; format: binding; conditions: mixed Molt4/Ramos cell lysate, dot blot detection
# T1 construct: endogenous in cells; host or cells: Mixed Molt4/Ramos lysate (1:2)
# Protocol: (§1) The compounds of the present invention as described in the previous examples were tested in a Kinobeads™ assay as described for ZAP-70 (WO-A 2007/137867). Briefly, test compounds (at various concentrations) and the affinity matrix with the immobilized aminopyrido-pyrimidine ligand 24 were added to cell lysate aliquots and allowed to bind to the proteins in the lysate sample. After the incubation time the beads with captured proteins were separated from the lysate. Bound proteins were then eluted and the presence of JAK2 and JAK3 was detected and quantified using specific antibodies in a dot blot procedure and the Odyssey infrared detection system. Dose response curves for individual kinases were generated and IC50 values calculated. Kinobeads™ assays for ZAP-70 (WO-A 2007/137867) and for kinase selectivity profiling (WO-A 2006/134056) have been previously described.
# (§2) The affinity matrix was washed two times with 15 mL of 1×DP buffer containing 0.2% NP40 (IGEPAL® CA-630, Sigma, #13021) and then resuspended in 1×DP buffer containing 0.2% NP40 (3% beads slurry).
# (§3) 5×DP buffer: 250 mM Tris-HCl pH 7.4, 25% Glycerol, 7.5 mM MgCl2, 750 mM NaCl, 5 mM Na3VO4; filter the 5×DP buffer through a 0.22 μm filter and store in aliquots at −80° C. The 5×DP buffer is diluted with H2O to 1×DP buffer containing 1 mM DTT and 25 mM NaF.
# (§4) Stock solutions of test compounds were prepared in DMSO. In a 96 well plate 30 μL solution of diluted test compounds at 5 mM in DMSO were prepared. Starting with this solution a 1:3 dilution series (9 steps) was prepared. For control experiments (no test compound) a buffer containing 2% DMSO was used.
# (§5) Molt4 cells (ATCC catalogue number CRL-1582) and Ramos cells (ATCC catalogue number CRL-1596) were grown in 1 L Spinner flasks (Integra Biosciences, #182101) in suspension in RPMI 1640 medium (Invitrogen, #21875-034) supplemented with 10% Fetal Bovine Serum (Invitrogen) at a density between 0.15×10^6 and 1.2×10^6 cells/mL. Cells were harvested by centrifugation, washed once with 1×PBS buffer (Invitrogen, #14190-094) and cell pellets were frozen in liquid nitrogen and subsequently stored at −80° C. Cells were homogenized in a Potter S homogenizer in lysis buffer: 50 mM Tris-HCl, 0.8% NP40, 5% glycerol, 150 mM NaCl, 1.5 mM MgCl2, 25 mM NaF, 1 mM sodium vanadate, 1 mM DTT, pH 7.5. One complete EDTA-free tablet (protease inhibitor cocktail, Roche Diagnostics, 1873580) per 25 mL buffer was added. The material was dounced 10 times using a mechanized POTTER S, transferred to 50 mL falcon tubes, incubated for 30 minutes on ice and spun down for 10 minutes at 20,000 g at 4° C. (10,000 rpm in Sorvall SLA600, precooled). The supernatant was transferred to an ultracentrifuge (UZ)-polycarbonate tube (Beckmann, 355654) and spun for 1 hour at 100.000 g at 4° C. (33.500 rpm in Ti50.2, precooled). The supernatant was transferred again to a fresh 50 mL falcon tube, the protein concentration was determined by a Bradford assay (BioRad) and samples containing 50 mg of protein per aliquot were prepared. The samples were immediately used for experiments or frozen in liquid nitrogen and stored frozen at −80° C.
# (§6) Cell lysate (approximately 50 mg protein per plate) was thawed in a water bath at room temperature and then stored on ice. To the thawed cell lysate 1×DP 0.8% NP40 buffer containing protease inhibitors (1 tablet for 25 mL buffer; EDTA-free protease inhibitor cocktail; Roche Diagnostics 1873580) was added in order to reach a final protein concentration of 10 mg/mL total protein. The diluted cell lysate was stored on ice. Mixed Molt4/Ramos lysate was prepared by combining one volume of Molt4 lysate and two volumes of Ramos lysate (ratio 1:2).
# (§7) To a 96 well filter plate (Multiscreen HTS, BV Filter Plates, Millipore #MSBVN1250) were added per well: 100 μL affinity matrix (3% beads slurry), […], of compound solution, and 50 μL of diluted lysate. […]
# JAK3 = biological target: T2, JAK3 (Homo sapiens, UniProt P52333); assay: Kinobeads assay, JAK3; format: binding; conditions: mixed Molt4/Ramos cell lysate, dot blot detection
# T2 construct: endogenous in cells; host or cells: Mixed Molt4/Ramos lysate (1:2)
# T2 sequence (P52333 1-1124): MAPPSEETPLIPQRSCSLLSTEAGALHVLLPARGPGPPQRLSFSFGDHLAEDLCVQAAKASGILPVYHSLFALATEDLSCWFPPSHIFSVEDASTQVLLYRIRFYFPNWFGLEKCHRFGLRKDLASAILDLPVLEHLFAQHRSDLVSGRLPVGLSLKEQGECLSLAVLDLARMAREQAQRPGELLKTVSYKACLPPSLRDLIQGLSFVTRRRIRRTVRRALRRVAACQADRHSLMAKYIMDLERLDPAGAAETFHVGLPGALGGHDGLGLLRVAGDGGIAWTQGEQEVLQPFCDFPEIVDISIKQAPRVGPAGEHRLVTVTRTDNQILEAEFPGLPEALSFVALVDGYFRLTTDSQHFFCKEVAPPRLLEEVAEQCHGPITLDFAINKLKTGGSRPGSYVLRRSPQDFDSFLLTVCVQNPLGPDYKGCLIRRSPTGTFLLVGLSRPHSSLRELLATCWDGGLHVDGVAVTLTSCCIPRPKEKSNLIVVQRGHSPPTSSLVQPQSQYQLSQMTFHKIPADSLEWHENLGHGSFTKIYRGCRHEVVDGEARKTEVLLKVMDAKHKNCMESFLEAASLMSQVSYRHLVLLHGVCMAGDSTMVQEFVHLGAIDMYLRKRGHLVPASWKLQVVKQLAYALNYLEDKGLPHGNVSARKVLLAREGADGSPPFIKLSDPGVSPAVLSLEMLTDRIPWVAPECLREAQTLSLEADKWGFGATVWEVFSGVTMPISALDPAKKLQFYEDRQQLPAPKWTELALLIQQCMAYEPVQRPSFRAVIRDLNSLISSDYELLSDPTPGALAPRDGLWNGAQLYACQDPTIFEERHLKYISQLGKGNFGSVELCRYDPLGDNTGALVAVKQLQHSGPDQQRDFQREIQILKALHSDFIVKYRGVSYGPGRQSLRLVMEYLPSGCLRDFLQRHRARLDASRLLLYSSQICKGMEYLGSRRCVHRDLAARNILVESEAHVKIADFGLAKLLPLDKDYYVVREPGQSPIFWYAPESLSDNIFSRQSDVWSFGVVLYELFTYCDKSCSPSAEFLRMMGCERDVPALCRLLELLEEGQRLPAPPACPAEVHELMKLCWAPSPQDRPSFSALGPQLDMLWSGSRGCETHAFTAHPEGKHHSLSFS
# Protocol: as §1, §2, §3, §4, §5, §6, §7
# T1 sequence (O60674 whole entry): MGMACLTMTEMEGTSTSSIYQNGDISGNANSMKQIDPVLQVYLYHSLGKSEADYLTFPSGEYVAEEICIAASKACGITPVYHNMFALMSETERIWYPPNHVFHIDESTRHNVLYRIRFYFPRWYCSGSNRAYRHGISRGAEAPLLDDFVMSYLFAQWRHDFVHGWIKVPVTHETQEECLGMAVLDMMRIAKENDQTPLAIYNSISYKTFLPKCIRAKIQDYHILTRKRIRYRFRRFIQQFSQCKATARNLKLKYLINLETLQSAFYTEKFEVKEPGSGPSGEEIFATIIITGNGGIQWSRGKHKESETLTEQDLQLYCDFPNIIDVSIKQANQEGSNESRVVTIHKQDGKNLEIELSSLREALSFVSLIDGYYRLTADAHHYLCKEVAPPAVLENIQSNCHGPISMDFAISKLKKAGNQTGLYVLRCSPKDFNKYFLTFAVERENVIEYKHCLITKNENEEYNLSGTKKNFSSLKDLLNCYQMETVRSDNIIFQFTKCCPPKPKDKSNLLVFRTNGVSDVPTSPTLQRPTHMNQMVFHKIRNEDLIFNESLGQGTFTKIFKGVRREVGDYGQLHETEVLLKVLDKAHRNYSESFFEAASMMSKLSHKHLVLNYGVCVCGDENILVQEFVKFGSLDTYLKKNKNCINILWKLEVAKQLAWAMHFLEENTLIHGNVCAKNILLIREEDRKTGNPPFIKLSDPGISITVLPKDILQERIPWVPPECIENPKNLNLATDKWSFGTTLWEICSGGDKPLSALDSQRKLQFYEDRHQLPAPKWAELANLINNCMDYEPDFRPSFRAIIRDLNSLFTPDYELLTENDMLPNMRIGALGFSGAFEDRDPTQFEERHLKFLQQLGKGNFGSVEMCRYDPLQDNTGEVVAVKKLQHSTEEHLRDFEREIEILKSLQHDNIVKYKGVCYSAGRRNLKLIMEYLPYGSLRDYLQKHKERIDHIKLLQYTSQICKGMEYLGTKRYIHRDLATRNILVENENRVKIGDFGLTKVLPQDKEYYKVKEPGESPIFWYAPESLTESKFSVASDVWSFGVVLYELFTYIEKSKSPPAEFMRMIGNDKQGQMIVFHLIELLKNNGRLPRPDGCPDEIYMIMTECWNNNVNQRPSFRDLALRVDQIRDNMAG
pIC50 (JAK2),pIC50 (JAK3),Structure (SMILES)
5.00 to 6.00,6.00 to 7.00,"Cc1nn(CC(F)F)cc1Nc1ncc2cnn(Cc3ccccc3C(N)=O)c2n1 [Example 43, 2-((6-(1-(2,2-Difluoroethyl)-3-methyl-1H-pyrazol-4-ylamino)-1H-pyrazolo[3,4-d]pyrimidin-1-yl)methyl)benzamide]"
5.00 to 6.00,> 7.00,"COc1nn(CCO)cc1Nc1ncc2cnn(Cc3ccccc3C#N)c2n1 [Example 44, 2-((6-(1-(2-Hydroxyethyl)-3-methoxy-1H-pyrazol-4-ylamino)-1H-pyrazolo[3,4-d]pyrimidin-1-yl)methyl)benzonitrile]"
5.00 to 6.00,> 7.00,"Cn1cc(Nc2ncc3cnn(Cc4cccnc4F)c3n2)cn1 [Example 45, 1-((2-Fluoropyridin-3-yl)methyl)-N-(1-methyl-1H-pyrazol-4-yl)-1H-pyrazolo[3,4-d]pyrimidin-6-amine]"
5.00 to 6.00,6.00 to 7.00,"Cn1cc(Nc2ncc3cnn(Cc4ccncc4F)c3n2)cn1 [Example 46, 1-((3-Fluoropyridin-4-yl)methyl)-N-(1-methyl-1H-pyrazol-4-yl)-1H-pyrazolo[3,4-d]pyrimidin-6-amine]"
5.00 to 6.00,6.00 to 7.00,"Cn1cc(Nc2ncc3cnn(Cc4ccc(F)cc4F)c3n2)cn1 [Example 47, 1-(2,4-Difluorobenzyl)-N-(1-methyl-1H-pyrazol-4-yl)-1H-pyrazolo[3,4-d]pyrimidin-6-amine]"
5.00 to 6.00,6.00 to 7.00,"Cn1cc(Nc2ncc3cnn(CCc4ccccc4)c3n2)cn1 [Example 48, N-(1-Methyl-1H-pyrazol-4-yl)-1-phenethyl-1H-pyrazolo[3,4-d]pyrimidin-6-amine]"
5.00 to 6.00,> 7.00,"COc1nn(CCO)cc1Nc1ncc2cnn(Cc3ccccc3F)c2n1 [Example 49, 2-(4-(1-(2-Fluorobenzyl)-1H-pyrazolo[3,4-d]pyrimidin-6-ylamino)-3-methoxy-1H-pyrazol-1-yl)ethanol]"
5.00 to 6.00,> 7.00,"COc1nn(CCO)cc1Nc1ncc2cnn(Cc3cccc(F)c3F)c2n1 [Example 50, 2-(4-(1-(2,3-Difluorobenzyl)-1H-pyrazolo[3,4-d]pyrimidin-6-ylamino)-3-methoxy-1H-pyrazol-1-yl)ethanol]"
5.00 to 6.00,> 7.00,"COc1nn(CCO)cc1Nc1ncc2cnn(Cc3cc(F)ccc3F)c2n1 [Example 51, 2-(4-(1-(2,5-Difluorobenzyl)-1H-pyrazolo[3,4-d]pyrimidin-6-ylamino)-3-methoxy-1H-pyrazol-1-yl)ethanol]"
> 7.00,> 7.00,"Cn1cc(Nc2ncc3cnn(Cc4cc(F)ccc4C#N)c3n2)cn1 [Example 52, 4-Fluoro-2-((6-(1-methyl-1H-pyrazol-4-ylamino)-1H-pyrazolo[3,4-d]pyrimidin-1-yl)methyl)benzonitrile]"
> 7.00,> 7.00,"Cn1cc(Nc2ncc3cnn(Cc4cc(F)ccc4C(N)=O)c3n2)cn1 [Example 53, 4-Fluoro-2-((6-(1-methyl-1H-pyrazol-4-ylamino)-1H-pyrazolo[3,4-d]pyrimidin-1-yl)methyl)benzamide]"
5.00 to 6.00,6.00 to 7.00,"Cn1cc(Nc2ncc3cnn(-c4ccc(NS(C)(=O)=O)cn4)c3n2)cn1 [Example 54, N-(6-(6-(1-Methyl-1H-pyrazol-4-ylamino)-1H-pyrazolo[3,4-d]pyrimidin-1-yl)pyridin-3-yl)methanesulfonamide]"
5.00 to 6.00,6.00 to 7.00,"Cc1nc(-n2ncc3cnc(Nc4cnn(C)c4)nc32)ccc1NS(C)(=O)=O [Example 55, N-(2-Methyl-6-(6-(1-methyl-1H-pyrazol-4-ylamino)-1H-pyrazolo[3,4-d]pyrimidin-1-yl)pyridin-3-yl)methanesulfonamide]"
5.00 to 6.00,6.00 to 7.00,"Cn1cc(Nc2ncc3cnn(-c4ccc(F)cc4)c3n2)cn1 [Example 56, 1-(4-Fluorophenyl)-N-(1-methyl-1H-pyrazol-4-yl)-1H-pyrazolo[3,4-d]pyrimidin-6-amine]"
